Reference: the CheMixHub drug solubility set

Assay: xn = mol fraction of the nth substance listed, in the solute-free solvent

CC1CCC2C(C)C(OC(=O)CCC(=O)O)OC3OC4(C)CCC1C32OO4 (stereo unspecified) + CC(C)O + O
solubility (g/100 g solution)
Conditions	278.15 K	283.15 K	288.15 K	293.15 K	298.15 K	303.15 K	308.15 K	313.15 K	318.15 K
x2 = 0.03232	0.0811	0.106	0.134	0.171	0.208	0.263	0.325	0.397	0.486
x2 = 0.06978	0.226	0.289	0.358	0.447	0.536	0.663	0.804	0.965	1.16
x2 = 0.114	0.47	0.591	0.72	0.884	1.05	1.27	1.52	1.8	2.13
x2 = 0.1666	0.786	0.985	1.18	1.43	1.68	2.02	2.37	2.77	3.23
x2 = 0.2309	1.12	1.38	1.65	1.97	2.31	2.72	3.18	3.68	4.25
x2 = 0.3106	1.41	1.7	2.02	2.43	2.8	3.3	3.83	4.42	5.04
x2 = 0.4116	1.62	1.95	2.3	2.75	3.15	3.69	4.24	4.87	5.54
x2 = 0.5455	1.77	2.13	2.49	2.94	3.37	3.92	4.5	5.12	5.8
x2 = 0.7299	1.84	2.17	2.53	3	3.42	3.96	4.53	5.15	5.78

CCOC(=O)OC1=C(c2cc(C)ccc2C)C(=O)NC12CCC(OC)CC2 (stereo unspecified) + CC(C)O + O
solubility (g/100 g solution)
Conditions	278.15 K	283.15 K	288.15 K	293.15 K	298.15 K	303.15 K	308.15 K	313.15 K	318.15 K
x2 = 0.2	0.638	0.86	1.19	1.61	2.18	2.85	3.73	4.8	6.15
x2 = 0.4	2.55	2.99	3.88	5	6.36	8.23	10.4	13.1	16.5
x2 = 0.6	3.11	3.92	5.04	6.01	7.67	9.71	12.3	15.4	19.1
x2 = 0.8	2.53	3.07	3.85	5.03	6.44	8.1	10.2	13.2	16.5

Cc1nc2n(c(=O)c1CCN1CCC(c3noc4cc(F)ccc34)CC1)CCCC2 + CC(C)O + O
solubility (g/100 g solution)
Conditions	278.15 K	283.15 K	288.15 K	293.15 K	298.15 K	303.15 K	308.15 K	313.15 K
x2 = 0.1139	0.369	0.473	0.605	0.788	0.98	1.22	1.52	1.88
x2 = 0.1664	1.41	1.66	1.99	2.47	2.94	3.63	4.31	5.25
x2 = 0.2308	2.72	3.2	3.94	4.7	5.66	6.83	8.2	9.98
x2 = 0.3101	4.21	4.9	5.85	6.92	8.29	9.97	11.9	14.2
x2 = 0.4116	4.95	5.81	6.87	8.09	9.69	11.5	13.5	16.3
x2 = 0.5454	4.55	5.34	6.38	7.46	8.78	10.4	12.3	14.6
x2 = 0.7297	2.53	3.02	3.63	4.31	5.08	6.06	7.28	8.7

c1ccc(-c2ccc(C(c3ccccc3)n3ccnc3)cc2)cc1 (stereo unspecified) + CC(C)O + O
solubility (g/100 g solution)
Conditions	278.15 K	283.15 K	288.15 K	293.15 K	298.15 K	303.15 K	308.15 K	313.15 K	318.15 K
x2 = 0.03225	0.0342	0.0473	0.0644	0.0851	0.103	0.142	0.189	0.234	0.294
x2 = 0.06974	0.0839	0.115	0.155	0.204	0.247	0.338	0.444	0.549	0.687
x2 = 0.1139	0.17	0.232	0.31	0.408	0.497	0.673	0.876	1.09	1.35
x2 = 0.1666	0.29	0.394	0.525	0.692	0.849	1.14	1.48	1.84	2.29
x2 = 0.2307	0.426	0.578	0.767	1.05	1.37	1.77	2.24	2.81	3.38
x2 = 0.3103	0.547	0.744	0.987	1.32	1.65	2.2	2.83	3.56	4.43
x2 = 0.4117	0.629	0.928	1.26	1.69	2.19	2.73	3.34	4.23	5.29
x2 = 0.5454	0.662	0.935	1.36	1.8	2.39	2.97	3.63	4.64	5.84
x2 = 0.7297	0.651	0.899	1.25	1.75	2.25	2.98	3.86	4.96	6.12

CC1CCC2C(C)C(OC(=O)CCC(=O)O)OC3OC4(C)CCC1C32OO4 (stereo unspecified) + CC(O)CO + O
solubility (g/100 g solution)
Conditions	278.15 K	283.15 K	288.15 K	293.15 K	298.15 K	303.15 K	308.15 K	313.15 K	318.15 K
x2 = 0.02567	0.0421	0.056	0.0717	0.092	0.114	0.145	0.181	0.223	0.275
x2 = 0.05599	0.0843	0.11	0.139	0.176	0.215	0.27	0.333	0.404	0.492
x2 = 0.0921	0.155	0.201	0.25	0.313	0.377	0.466	0.568	0.682	0.819
x2 = 0.1363	0.259	0.33	0.408	0.503	0.606	0.737	0.888	1.05	1.25
x2 = 0.1915	0.384	0.484	0.593	0.724	0.853	1.03	1.23	1.45	1.71
x2 = 0.2622	0.501	0.635	0.77	0.932	1.1	1.3	1.55	1.81	2.09
x2 = 0.3554	0.579	0.73	0.88	1.06	1.24	1.46	1.72	2	2.3
x2 = 0.4866	0.602	0.746	0.906	1.08	1.27	1.48	1.75	2.01	2.31
x2 = 0.6826	0.571	0.704	0.845	1.02	1.19	1.38	1.62	1.86	2.12

c1ccc(-c2ccc(C(c3ccccc3)n3ccnc3)cc2)cc1 (stereo unspecified) + CC(O)CO + O
solubility (g/100 g solution)
Conditions	278.15 K	283.15 K	288.15 K	293.15 K	298.15 K	303.15 K	308.15 K	313.15 K	318.15 K
x2 = 0.02564	0.0702	0.0956	0.129	0.168	0.2	0.272	0.357	0.437	0.544
x2 = 0.0559	0.223	0.3	0.398	0.511	0.608	0.812	1.05	1.27	1.56
x2 = 0.09214	0.441	0.588	0.777	0.991	1.18	1.56	2	2.41	2.96
x2 = 0.1364	0.633	0.843	1.11	1.42	1.71	2.23	2.85	3.45	4.22
x2 = 0.1915	0.747	0.998	1.32	1.73	2.16	2.74	3.47	4.21	5.14
x2 = 0.2621	0.794	1.06	1.41	1.82	2.24	2.91	3.71	4.55	5.62
x2 = 0.3559	0.86	1.14	1.5	1.93	2.42	3.13	4	4.89	5.95
x2 = 0.4865	0.859	1.2	1.6	2.03	2.59	3.24	3.98	4.95	6.18
x2 = 0.6806	0.776	1.06	1.42	1.94	2.58	3.33	4.25	5.2	6.23

CC(S)C(=O)NCC(=O)O (stereo unspecified) + CCCCO + CC#N
solubility (g/100 g solution)
Conditions	273.15 K	278.15 K	283.15 K	288.15 K	293.15 K	298.15 K	303.15 K	308.15 K	313.15 K	318.15 K
x2 = 0.1216	3.87	4.43	4.99	5.57	6.21	6.84	7.49	8.19	8.94	9.75
x2 = 0.2697	4.29	4.96	5.69	6.46	7.28	8.08	8.92	9.79	10.7	11.9
x2 = 0.4538	4.43	4.94	5.58	6.3	7.26	8.29	9.41	10.6	11.8	13
x2 = 0.689	4.42	5.29	6.26	7.32	8.38	9.51	10.7	12	13.3	14.7

CC(S)C(=O)NCC(=O)O (stereo unspecified) + CCCCO + Cc1ccccc1
solubility (g/100 g solution)
Conditions	273.15 K	278.15 K	283.15 K	288.15 K	293.15 K	298.15 K	303.15 K	308.15 K	313.15 K	318.15 K
x2 = 0.2371	0.947	1.12	1.28	1.47	1.67	1.87	2.08	2.33	2.6	2.92
x2 = 0.4531	2.23	2.53	2.88	3.29	3.76	4.25	4.73	5.25	5.84	6.48
x2 = 0.6509	2.84	3.41	4.01	4.7	5.45	6.25	7.12	7.99	8.88	10
x2 = 0.8325	3.57	4.44	5.37	6.33	7.31	8.43	9.63	11	12.3	13.9
